“Also recorded” adds a separate entry of the source. Positions of bridges follow the written chain, without caps; N, C: chain ends. Non-standard residues stand in square brackets, D forms with d. Residues, ends and D or L forms follow the SMILES beside them. *: point of attachment. Ileψ(thiazoline)Cys = CC[C@H](C)[C@H](N)C1=N[C@H](C(=O)*)CS1; dOrn = NCCC[C@@H](N)C(=O)O
Test system: sigE promoter
Assay: sigE promoter bioassay: sigEp-neo fusion (pIJ6880) in M600, paper discs on MMT medium with lethal kanamycin, halo of kanamycin-resistant growth
Assay type: cell-based, Streptomyces coelicolor A3(2)
Conditions: for induction of the sigE promoter (halo of kanamycin-resistant growth), in words: M600 carrying pIJ6880, MMT medium, kanamycin 100 μg ml^−1, paper disc; for potency as inducer of the sigE promoter, in words: M600 carrying pIJ6880, kanamycin 100 μg ml^−1, paper disc
Description: To see if the sigE promoter could be induced by control-antibiotics known to target the cell envelope, spores of M600 carrying pIJ6880 were spread on MMT medium carrying a lethal concentration of kanamycin (100 μg ml^−1) and potential inducers were applied on paper discs to the freshly spread plates.
In order to perform the assay of the invention,spores of the host microorganism, for example, M600 carrying pIJ6880, are spread on MMT medium carrying a lethal concentration of kanamycin (100 μg ml^−1)at concentration of approximately 5×10^6/12 cm^2 plate. Test compound is applied on paper discs to a number of freshly spread plates in parallel using a different concentration of the test compound in each plate.

Compound	induction of the sigE promoter (halo of kanamycin-resistant growth), in words	other results
CO[C@@H]1[C@@H](OC(N)=O)[C@@H](O)[C@H](Oc2ccc3c(O)c(NC(=O)c4ccc(O)c(CC=C(C)C)c4)c(=O)oc3c2C)OC1(C)C [Novobiocin]	do not induce a halo	–
CC1=C(C(=O)O)N2C(=O)[C@@H](NC(=O)[C@H](N)c3ccccc3)[C@H]2SC1 [Cephalexin]	found to induce the sigE promoter	–
CC1=C(C(=O)O)N2C(=O)[C@@H](NC(=O)[C@H](N)c3ccc(O)cc3)[C@H]2SC1 [Cefadroxil]	found to induce the sigE promoter	–
[H]/N=C(/N)N[C@H]1[C@H](O)[C@@H](O)[C@H](O[C@@H]2O[C@@H](C)[C@](O)(C=O)[C@H]2O[C@@H]2O[C@@H](CO)[C@H](O)[C@@H](O)[C@@H]2NC)[C@@H](N/C(N)=N\[H])[C@@H]1O [Streptomycin]	do not induce a halo	–
CC1(C)S[C@@H]2[C@H](NC(=O)[C@H](N)c3ccc(O)cc3)C(=O)N2[C@H]1C(=O)O [Amoxycillin]	induced a halo of kanamycin-resistant growth	–
C=C(NC(=O)C(=C)NC(=O)c1csc(C2=N[C@@H]3c4csc(n4)[C@H]4NC(=O)c5csc(n5)[C@H]([C@](C)(O)[C@@H](C)O)NC(=O)[C@H]5CSC(=N5)/C(=C/C)NC(=O)[C@H]([C@@H](C)O)NC(=O)c5csc(n5)[C@]3(CC2)NC(=O)[C@H](C)NC(=O)C(=C)NC(=O)[C@H](C)NC(=O)[C@H]([C@@H](C)CC)N[C@@H]2C=Cc3c([C@H](C)O)cc(nc3[C@H]2O)C(=O)O[C@@H]4C)n1)C(N)=O [Thiostrepton]	do not induce a halo	–
CC1(C)S[C@@H]2[C@H](NC(=O)[C@H](C(=O)O)c3ccsc3)C(=O)N2[C@H]1C(=O)O [Ticarcillin]	induced a halo of kanamycin-resistant growth; also recorded: found to induce the sigE promoter	–
CC1(C)S[C@@H]2[C@H](NC(=O)[C@H](N)c3ccccc3)C(=O)N2[C@H]1C(=O)O [Ampicillin]	found to induce the sigE promoter	–
N[C@@H](C(=O)N[C@@H]1C(=O)N2C(C(=O)O)=C(Cl)CS[C@H]12)c1ccccc1 [Cefaclor]	found to induce the sigE promoter	–
Teicoplanin	induced a halo of kanamycin-resistant growth; also recorded: found to induce the sigE promoter	potency as inducer of the sigE promoter, in words: particularly potent inducers
CC1(C)S[C@@H]2[C@H](NC(=O)Cc3ccccc3)C(=O)N2[C@H]1C(=O)O [Penicillin G]	induced a halo of kanamycin-resistant growth; also recorded: found to induce the sigE promoter	–
CC1=C(C(=O)O)N2C(=O)[C@@H](NC(=O)[C@H](N)C3=CCC=CC3)[C@H]2SC1 [Cepharadine]	found to induce the sigE promoter	–
lysozyme	acted as an inducer	–
CN[C@H](CC(C)C)C(=O)N[C@H]1C(=O)N[C@@H](CC(N)=O)C(=O)N[C@H]2C(=O)N[C@H]3C(=O)N[C@H](C(=O)N[C@H](C(=O)O)c4cc(O)cc(O)c4-c4cc3ccc4O)[C@H](O)c3ccc(c(Cl)c3)Oc3cc2cc(c3O[C@@H]2O[C@H](CO)[C@@H](O)[C@H](O)[C@H]2O[C@H]2C[C@](C)(N)[C@H](O)[C@H](C)O2)Oc2ccc(cc2Cl)[C@H]1O [Vancomycin]	induced a halo of kanamycin-resistant growth; also recorded: found to induce the sigE promoter	potency as inducer of the sigE promoter, in words: particularly potent inducers; signs of toxicity to the reporter strain while acting as inducer (halo grows to the edge of the disc) (paper disc, FIG. 2): without showing any signs of toxicity
Cc1onc(-c2ccccc2)c1C(=O)N[C@@H]1C(=O)N2[C@@H]1SC(C)(C)[C@@H]2C(=O)O [oxacillin]	found to induce the sigE promoter	–
Ristocetin	induced a halo of kanamycin-resistant growth; also recorded: found to induce the sigE promoter	potency as inducer of the sigE promoter, in words: particularly potent inducers; amount giving a positive reaction in the bioassay (initial assessment of sensitivity) (sigE promoter bioassay): 75 ng
CC[C@H](C)[C@H](N)C1=N[C@H](C(=O)N[C@@H](CC(C)C)C(=O)N[C@H](CCC(=O)O)C(=O)N[C@H](C(=O)N[C@H]2CCCCNC(=O)[C@H](CC(N)=O)NC(=O)[C@@H](CC(=O)O)NC(=O)[C@H](Cc3cnc[nH]3)NC(=O)[C@@H](Cc3ccccc3)NC(=O)[C@H]([C@@H](C)CC)NC(=O)[C@@H](CCCN)NC2=O)[C@@H](C)CC)CS1 [Bacitracin] ({Ileψ(thiazoline)Cys}-L[dE]IK[dOrn]I[dF]H[dD]N; lactam 4-C)	found to induce the sigE promoter	potency as inducer of the sigE promoter, in words: particularly potent inducers

Reference: patent US20040014066A1, “Screening system” (priority 2000, published 2004)
